# Assay results as given in patent publication US11464750B2, “Anticancer agent and use thereof” (priority 2017, dated 2022).
# Legend:
# Format in all cases: cell-based, human
# PTEN protein = assay: Western blotting, PTEN protein, Panc-1 cells; conditions: 3 μM
# Method: (§1) Specifically, first, JeKo-1 cells were cultured for 0 (control), 12, 24, and 48 hours in the presence of 0.5 μM of 3EZ,20Ac-ingenol. In addition, Panc-1 cells were cultured for 0 (control), 12, 24, and 48 hours in the presence of 3 μM of 3EZ,20Ac-ingenol.
# Subsequently, abundances of PTEN protein in entire cell fractions, nuclear fractions, and cytoplasm fractions of the respective cells were analyzed by Western blotting using an anti-PTEN antibody (Santa Cruz). Furthermore, as a loading control, actin protein was detected using an anti-actin antibody (Sigma).
# BALL-1 cells = assay: MTT assay, BALL-1 cells; conditions: 0.01, 0.05, 0.1, 0.5, and 1 μM, 48 hours
# Method: BALL-1 cells of a cell line derived from […], TKG0210 cells of a human myeloid leukemia cell line, and TKG0377 cells of a human T cell acute leukemia cell line were seeded in 96-well plates at 2.5×10^4 cells/well/100 μL, and cultured for 48 hours in the presence of 3EZ,20Ac-ingenol at final concentrations of 0 (control), 0.5, 1, 5, and 10 μM. Subsequently, cell proliferation was examined by MTT assay using a Cell Proliferation Kit 1 (Roche Applied Science).
# BALL-1 cells were exposed to 3EZ,20Ac-ingenol, 3EE,20Ac-ingenol, 20Ac-ingenol, and ingenol at concentrations of 0.01, 0.05, 0.1, 0.5, and 1 μM for 48 hours. Thereafter, cell proliferation was examined by MTT assay. Cells that were not exposed to the chemical were used as controls. The chemical formulas of 3EZ,20Ac-ingenol, 3EE,20Ac-ingenol, and 20Ac-ingenol are as described above. The chemical formula of ingenol is shown in the following Formula (7).
# cyclin D1 = assay: Western blotting, cyclin D1, BALL-1 cells; conditions: 0.5 μM
# Method: Specifically, BALL-1 cells were cultured for 12, 24, and 48 hours in the presence of 3EZ,20Ac-ingenol at a final concentration of 0.5 μM, and abundances of cyclin D1 in the nuclear fraction and the cytoplasm fraction were analyzed by Western blotting. In addition, cells cultured in the absence of 3EZ,20Ac-ingenol were used as controls.
# Whether transfer of cyclin D1 from the nucleus to the cytoplasm is ATR-dependent and PTEN-dependent was examined using siRNA against ATR and siRNA against PTEN. First, siRNA against ATR (“ON-TARGET Plus Human ATR (545) siRNA-SMARTpool,” GE Dharmacon), siRNA against PTEN (“ON-TARGET Plus Human PTEN (5728) siRNA-SMARTpool,” GE Dharmacon), and control siRNA (“ON-TARGET Plus Nontargeting pool,” GE Dharmacon) were respectively introduced into BALL-1 cells at a final concentration of 50 nM, and incubated for 48 hours.
# Subsequently, a cell medium was replaced with a new medium containing 3EZ,20Ac-ingenol at a final concentration of 0.5 μM, and culturing was performed for 24 and 48 hours. Subsequently, abundances of cyclin D1 in the nuclear fraction and the cytoplasm fraction were analyzed by Western blotting using an anti-cyclin-D1 antibody (Santa Cruz).
# TKG0210 cells = assay: Cell Death Detection ELISA, TKG0210; conditions: 0.5 μM, 72 hours
# Method: The induction of apoptosis by 3EZ,20Ac-ingenol treatment was examined by detecting histone-binding DNA fragmentation in the cytoplasm using a Cell Death Detection ELISA kit (Roche Applied Science).
# Specifically, BALL-1 cells, TKG0210 cells, and TKG0377 cells were inserted into tubes at 5×10^4 cells/well/200 μL, and incubated for 6, 12, 24, 48, and 72 hours in the presence of 3EZ,20Ac-ingenol at a final concentration of 0.5 μM. Subsequently, the respective cells were lysed in a lysis buffer. Subsequently, the supernatant of cell debris of the respective cells was collected and transferred to an ELISA plate, and an absorbance at a wavelength of 405 nm was measured to measure the induction of apoptosis.
# [1] = test system: phosphorylated p53 (p-p53) protein; assay: Western blotting, phosphorylated p53, JeKo-1 cells; conditions: 0.5 μM, entire cells
# Method: (§2) Specifically, JeKo-1 cells were cultured for 0 (control), 12, 24, and 48 hours in the presence of 0.5 μM of 3EZ,20Ac-ingenol. In addition, Panc-1 cells were cultured for 0 (control), 12, 24, and 48 hours in the presence of 3 μM of 3EZ,20Ac-ingenol.
# (§3) Subsequently, ATR protein, p53 protein, and phosphorylated p53 (hereinafter also referred to as “p-p53”) protein in the respective cells were respectively detected using an anti-ATR antibody (Cell Signaling Technology), an anti-p53 antibody (Santa Cruz), and an anti-p-p53 antibody (Cell Signaling Technology). Furthermore, as a loading control, actin protein was detected using an anti-actin antibody (Sigma).
# ATR protein = assay: Western blotting, ATR protein, JeKo-1 cells; conditions: 0.5 μM
# Method: as §2, §3
# caspase 3 = assay: Western blotting, activated caspase 3, Panc-1 cells; conditions: 3 μM, 12 hours after treatment
# Method: Specifically, JeKo-1 cells were cultured for 0 (control), 12, 24, and 48 hours in the presence of 0.5 μM of 3EZ,20Ac-ingenol. In addition. Panc-1 cells were cultured for 0 (control), 12, 24, and 48 hours in the presence of 3 μM of 3EZ,20Ac-ingenol. Subsequently, activation of caspase 3 in the respective cells was detected by Western blotting using an anti-activated-caspase antibody (R & D Systems). Furthermore, as a loading control, actin protein was detected using an anti-actin antibody (Sigma).
# p-Akt (Ser^473) = assay: Western blotting, p-Akt, JeKo-1 cells; conditions: 0.5 μM
# Method: as §1
# Subsequently, by Western blotting using an anti-Akt antibody (Cell Signaling Technology) and an anti-p-Akt (Ser^473) antibody (Cell Signaling Technology), abundances of total amounts of Akt protein and p-Akt in the entire cell fractions, nuclear fractions, and cytoplasm fractions of the respective cells were analyzed. Furthermore, as a loading control, actin protein was detected using an anti-actin antibody (Sigma).
structure (smiles),measurement,setting,value
"CCCCC/C=C\C=C\C(=O)O[C@H]1C(C)=C[C@]23C(=O)[C@@H](C=C(COC(C)=O)[C@@H](O)[C@]12O)[C@H]1[C@@H](C[C@H]3C)C1(C)C [3EZ,20Ac-ingenol, 3-O-(2′E,4′Z-decadienoyl)-20-O-acetylingenol]",abundance of PTEN protein,"PTEN protein; cytoplasm fraction, 12 hours to 24 hours",an increase in abundance of PTEN protein in the cytoplasm fraction was observed
same,abundance of PTEN protein,"PTEN protein; cytoplasm fraction, 48 hours",a decrease in abundance of PTEN protein was observed
same,abundance of PTEN protein,"PTEN protein; entire cell fraction, 12 hours until 48 hours",an abundance of PTEN protein increased
same,abundance of PTEN protein,"PTEN protein; nuclear fraction, 12 hours to 24 hours",an increase in abundance of PTEN protein in the nuclear fraction was observed
same,inhibition of proliferation of the BALL-1 cells,BALL-1 cells,a significant level of inhibition of proliferation
same,abundance of cyclin D1,"cyclin D1; cytoplasm fraction, 12 hours and 24 hours",increased
same,abundance of cyclin D1,"cyclin D1; cytoplasm fraction, after 48 hours",decreased again
same,abundance of cyclin D1,"cyclin D1; nuclear fraction, 24 hours",a decrease in abundance of cyclin D1 was observed
same,abundance of cyclin D1,"cyclin D1; siRNA against ATR introduced, cytoplasm fraction, 24 hours",abundances of cyclin D1 in the cytoplasm fractions increased
same,abundance of cyclin D1,"cyclin D1; siRNA against ATR introduced, cytoplasm fraction, 48 hours",abundances of cyclin D1 in the cytoplasm fractions decreased again
same,abundance of cyclin D1,"cyclin D1; siRNA against ATR introduced, nuclear fraction, 24 and 48 hours",an abundance of cyclin D1 was large
same,abundance of cyclin D1,"cyclin D1; siRNA against PTEN introduced, cytoplasm fraction, 24 hours",abundances of cyclin D1 in the cytoplasm fractions increased
same,abundance of cyclin D1,"cyclin D1; siRNA against PTEN introduced, cytoplasm fraction, 48 hours",abundances of cyclin D1 in the cytoplasm fractions decreased again
same,abundance of cyclin D1,"cyclin D1; siRNA against PTEN introduced, nuclear fraction, 24 and 48 hours",an abundance of cyclin D1 was large
same,amount of fragmented DNA (apoptosis),TKG0210 cells,almost no fragmented DNA was detected
same,phosphorylation of p53,[1],phosphorylation of p53 was not confirmed
same,expression level of ATR protein,"ATR protein; 12 hours, further increase 24 hours after treatment",an increase in expression level of ATR protein was recognized
same,expression level of ATR protein,ATR protein; 48 hours after treatment,a decrease was recognized
same,activation of caspase 3,caspase 3,activation of caspase 3 was observed
same,abundance of p-Akt,"p-Akt (Ser^473); cytoplasm fraction, 12 to 48 hours",a decrease in abundance of p-Akt was clearly recognized
same,abundance of p-Akt,p-Akt (Ser^473); entire cell fraction,a slight decrease in abundance of p-Akt was observed
same,abundance of p-Akt,p-Akt (Ser^473); nuclear fraction,no change in an abundance of p-Akt was recognized
